Results from US7820379B2, “Process for high throughput screening of CpG-based immuno-agonist/antagonist” (Coley Pharmaceutical GmbH, priority 2000, dated 2010).

Target: T1, murine TLR9 (Mus musculus, UniProt Q9EQU3, L378S/Q579H/T325N/T573A/T867A)
T1 construct: additional primers were designed for amplification of the complete mouse TLR9 cDNA; expressed in transfected cells
T1 sequence (Q9EQU3 26-1032 T325N/L378S/T573A/Q579H/T867A): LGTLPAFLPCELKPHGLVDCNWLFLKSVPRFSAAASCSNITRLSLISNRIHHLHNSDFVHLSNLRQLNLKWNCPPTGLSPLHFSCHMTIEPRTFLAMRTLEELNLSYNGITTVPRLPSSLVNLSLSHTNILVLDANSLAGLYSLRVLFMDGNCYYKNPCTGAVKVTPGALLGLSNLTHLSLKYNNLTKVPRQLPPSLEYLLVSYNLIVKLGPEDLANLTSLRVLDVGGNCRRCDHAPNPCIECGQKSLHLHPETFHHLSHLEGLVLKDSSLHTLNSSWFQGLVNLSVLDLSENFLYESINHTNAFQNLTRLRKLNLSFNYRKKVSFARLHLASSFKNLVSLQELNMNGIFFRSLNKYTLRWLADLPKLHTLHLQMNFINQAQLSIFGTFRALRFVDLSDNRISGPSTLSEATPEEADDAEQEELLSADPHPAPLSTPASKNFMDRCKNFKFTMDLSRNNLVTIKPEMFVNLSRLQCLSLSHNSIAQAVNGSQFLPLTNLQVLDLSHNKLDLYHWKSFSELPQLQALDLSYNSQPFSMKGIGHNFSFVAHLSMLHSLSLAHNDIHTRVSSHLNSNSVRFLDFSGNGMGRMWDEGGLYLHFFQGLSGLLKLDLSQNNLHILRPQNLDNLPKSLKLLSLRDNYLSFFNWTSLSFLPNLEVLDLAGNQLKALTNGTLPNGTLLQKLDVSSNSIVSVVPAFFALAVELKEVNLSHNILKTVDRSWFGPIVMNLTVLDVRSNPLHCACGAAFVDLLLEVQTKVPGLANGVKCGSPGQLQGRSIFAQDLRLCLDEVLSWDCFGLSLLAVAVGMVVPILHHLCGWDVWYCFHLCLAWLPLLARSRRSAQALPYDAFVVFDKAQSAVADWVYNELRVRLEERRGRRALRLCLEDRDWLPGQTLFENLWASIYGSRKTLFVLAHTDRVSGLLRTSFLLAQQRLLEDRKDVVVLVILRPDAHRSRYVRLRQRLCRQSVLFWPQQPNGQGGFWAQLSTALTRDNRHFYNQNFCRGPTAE
Assay: IL-8 production by ELISA in 293 cells transfected with murine TLR9
Type: cell-based
Details: 293 cells transiently transfected with mTLR9, stimulated with 1.0 μM CpG-ODN 1668; 48 h
Description: Human fibroblast 293 cells were transiently transfected with mTLR9 and the NF-κB-luc construct (FIG. 2). Similar data was obtained for IL-8 production (not shown). Thus expression of TLR9 (human or mouse) in 293 cells results in a gain of function for CpG-DNA stimulation similar to hTLR4 reconstitution of LPS responses.
To generate stable clones expressing human TLR9, murine TLR9, or either TLR9 with the NF-κB-luc reporter plasmid, 293 cells were transfected in 10 cm plates (2×10^6 cells/plate) with 16 μg of DNA and selected with 0.7 mg/ml G418 (PAA Laboratories GmbH, Cölbe, Germany). The clones were also screened for IL-8 production or NF-κB-luciferase activity after stimulation with ODN. Four different types of clones were generated. • 293-hTLR9-luc: expressing human TLR9 and 6-fold NF-κB-luciferase reporter • 293-mTLR9-luc: expressing murine TLR9 and 6-fold NF-κB-luciferase reporter • 293-hTLR9: expressing human TLR9 • 293-mTLR9: expressing murine TLR9
It has been hypothesized that in order for DNA to enter the endosomal/lysosomal compartment a non-CpG dependent uptake receptor may be required. 293 cells were transiently transfected with mTLR9 treated with either medium only or 1.0 μM CpG-ODN 1668 (FIG. 15). […] IL-8 production was monitored after 48 h by ELISA.

5′-CTCCTAGTGGGGGTGTCCTAT-3′ (listed as DNA, chemistry not given here) [PZ2]
antagonism of activation (IL-8 production): in a dose-dependent manner, was able to antagonize the activation
